The values below are quoted from earlier work in US20090011014A1, “Tablet Formulation for Sustained Drug-Release” (UNIVERSITE DE MONTREAL, priority 2004, published 2009).

Where a name gives a salt, the structure may show the parent alone. Read-outs that look alike come from different tables or passages of the source.

The conditions of data set [1]: 400-mg substituted amylose tablet containing 10% of drug; example 5 and FIG. 16 of U.S. Pat. No. 5,879,707.

In the case of `CC(=O)Nc1ccc(O)cc1` [Acetaminophen], the “Influence of pH on solubility” value (physiological conditions) is recorded as “not influenced by pH”.
As to `O=C([O-])c1ccccc1O.[Na+]` [Sodium salicylate], the “Solubility, U.S.P. XXIII descriptive term” value was “freely soluble”. In addition, the “Time for release of 95% of the drug” value in data set [1] is 6.5 h.
Take `CC(NC(C)(C)C)C(=O)c1cccc(Cl)c1` (stereo not shown) [bupropion hydrochloride]: the “Solubility, U.S.P. XXIII descriptive term” value (hydrochloride) is “freely soluble”.
